Results as given in ChEMBL document CHEMBL1148592, “Synthesis and antiviral evaluation of cyclic and acyclic 2-methyl-3-hydroxy-4-pyridinone nucleoside derivatives” (J Med Chem, 2006).

How the values were obtained:
[1] = test system: Human alphaherpesvirus 2; test: Antiviral activity against HSV2 G in HEL cells; assay type: functional, organism-based; conditions: Human alphaherpesvirus 2, G
[2] = test system: Human immunodeficiency virus 1; test: Antiviral activity against HIV1 IIIB in CEM cells; assay type: functional, organism-based; conditions: Human immunodeficiency virus 1, 3B, CCRF-CEM
[3] = test system: Human immunodeficiency virus 2; test: Antiviral activity against HIV2 ROD in CEM cells; assay type: functional, organism-based; conditions: Human immunodeficiency virus 2, ROD, CCRF-CEM
[4] = test system: Human alphaherpesvirus 1; test: Antiviral activity against HSV1 KOS in HEL cells; assay type: functional, organism-based; conditions: Human alphaherpesvirus 1, KOS
[5] = test system: Human alphaherpesvirus 1; test: Antiviral activity against HSV1 TK- in HEL cells; assay type: functional, organism-based; conditions: Human alphaherpesvirus 1, TK-
[6] = Minimum toxic concentration in HEL cells; assay type: toxicity, cell-based; conditions: human, read-out: MTC
[7] = test system: CCRF-CEM; test: Cytotoxicity in CEM cells; assay type: functional; conditions: Homo sapiens

Row | Compound | EC50 [1] [µM] | EC50 [2] [µM] | EC50 [3] [µM] | EC50 [4] [µM] | EC50 [5] [µM] | MCC [6] [µM] | CC50 [7] [µM]
1 | Nc1nc2c(ncn2COC(CO)CO)c(=O)[nH]1 [GANCICLOVIR] | 0.06 | > 50 | > 50 | – | – | – | –
2 | Cc1c(OCc2ccccc2)c(=O)ccn1[C@H]1CC[C@@H](CO)O1 | > 200 | > 150 | > 150 | > 200 | > 200 | > 900 | > 150
3 | Cc1c(O)c(=O)ccn1CCOCP(=O)(O)O | > 200 | > 50 | > 50 | > 200 | – | > 200 | > 50
4 | Cc1c(O)c(=O)ccn1[C@H]1CC[C@H](CO)O1 | > 177 | > 90 | > 90 | 177 | > 177 | > 900 | 84
5 | Cc1c(O)c(=O)ccn1[C@H]1CS[C@@H](CO)O1 (racemic) | 81 | > 80 | > 80 | 32 | 80 | > 400 | 188
6 | Nc1ccn(C[C@@H](CO)OCP(=O)(O)O)c(=O)n1 [CIDOFOVIR] | – | > 10 | > 10 | 0.57 | – | > 350 | –
7 | Nc1nc2c(ncn2COCCO)c(=O)[nH]1 [ACYCLOVIR] | 1.76 | > 50 | > 50 | 1.12 | 86.6 | > 1700 | –
8 | Cc1cn([C@H]2C[C@H](N=[N+]=[N-])[C@@H](CO)O2)c(=O)[nH]c1=O [ZIDOVUDINE] | – | 0.0055 | 0.0055 | – | – | – | > 100
9 | Cc1c(O)c(=O)ccn1[C@@H]1CC[C@@H](CO)O1 | > 177 | > 50 | > 50 | 177 | > 177 | > 900 | 101
10 | Cc1c(O)c(=O)ccn1[C@H]1CC[C@@H](CO)O1 | > 900 | > 50 | > 50 | 40 | 500 | > 900 | > 50
11 | Cc1c(O)c(=O)ccn1[C@@H]1CS[C@@H](CO)O1 (racemic) | 90 | > 80 | > 80 | 40 | 95 | > 400 | 188
